Laboratory results from BindingDB's records for doi:10.1016/j.bmcl.2003.10.011 (University of Hamburg, 2003).

Target: Alpha-galactosidase (Aspergillus niger)
Assay: Compound tested for inhibition of alpha-galactosidase from Aspergillus niger

Compound `N[C@@H](COC[C@H]1O[C@@H](O)[C@H](O)[C@H](O)[C@@H]1O)C(=O)O` [2-Amino-3-(3,4,5,6-tetrahydroxy-tetrahydro-pyran-2-ylmethoxy)-propionic acid] has a Ki of 400 µM.
Compound `C[C@@H](OC[C@H]1O[C@@H](O)[C@H](O)[C@H](O)[C@@H]1O)[C@H](N)C(=O)O` [2-(R)-Amino-3-(3,4,5,6-tetrahydroxy-tetrahydro-pyran-2-ylmethoxy)-butyric acid] has a Ki of 300 µM.
